# Like-named read-outs stand apart in the source and are kept apart here.
# Tests used:
# CB1 (rCB1) [1] = target: T1, CB1 (rCB1) (Rattus norvegicus, UniProt P20272); assay: Single-point radioligand displacement screen; assay type: binding; settings: 10 µM, 1 µM or 300 nM by cell colour (not visible)
# hCB1 = hCB1 (Homo sapiens, UniProt P21554); assay: bioSensAll ebBRET signaling profiling, hCB1; assay type: cell-based; set-up: host or cells: HEK293SL cells, transient PEI transfection; settings: for Barr2+GRK2 hCB1 response: Barr2+GRK2 biosensor; for Gi1 hCB1 / GoB hCB1: single replicate values, FigS6a; for EC50: read-out: EC50 [95% CI]; for Emax: normalized to CP-55,940
# CB1 (rCB1) [2] = target: T1, CB1 (rCB1); assay: Radioligand competition binding, [3H]-CP-55,940, rat brain membranes
# Chain of hCB1 (P21554 whole entry): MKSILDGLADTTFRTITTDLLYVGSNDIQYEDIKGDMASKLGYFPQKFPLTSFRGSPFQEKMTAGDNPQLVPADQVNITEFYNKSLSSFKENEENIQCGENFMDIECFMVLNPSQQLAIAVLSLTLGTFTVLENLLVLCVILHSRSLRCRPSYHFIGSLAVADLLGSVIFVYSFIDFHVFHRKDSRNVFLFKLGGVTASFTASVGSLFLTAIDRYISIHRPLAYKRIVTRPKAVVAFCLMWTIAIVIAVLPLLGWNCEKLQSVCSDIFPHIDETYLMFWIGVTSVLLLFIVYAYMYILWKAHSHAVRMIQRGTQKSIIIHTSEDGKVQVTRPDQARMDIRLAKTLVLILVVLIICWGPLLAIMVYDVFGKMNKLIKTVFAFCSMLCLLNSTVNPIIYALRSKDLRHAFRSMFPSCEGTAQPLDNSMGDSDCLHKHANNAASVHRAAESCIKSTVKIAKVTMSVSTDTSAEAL
# T1 sequence (P20272 whole entry): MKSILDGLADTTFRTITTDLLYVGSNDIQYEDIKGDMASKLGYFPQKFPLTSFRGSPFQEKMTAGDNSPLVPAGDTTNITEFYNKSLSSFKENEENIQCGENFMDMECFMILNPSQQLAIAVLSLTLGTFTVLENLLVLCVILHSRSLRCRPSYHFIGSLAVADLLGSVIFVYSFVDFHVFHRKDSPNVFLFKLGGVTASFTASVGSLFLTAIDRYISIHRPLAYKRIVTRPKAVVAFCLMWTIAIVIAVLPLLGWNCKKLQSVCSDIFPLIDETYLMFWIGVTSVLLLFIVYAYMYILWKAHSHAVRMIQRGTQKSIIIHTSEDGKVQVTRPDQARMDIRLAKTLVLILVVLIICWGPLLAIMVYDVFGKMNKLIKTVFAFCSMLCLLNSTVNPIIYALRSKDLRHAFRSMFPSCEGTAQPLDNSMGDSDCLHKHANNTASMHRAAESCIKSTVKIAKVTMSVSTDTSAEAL
smiles,measurement,setting,value
Cc1nn(Cc2ccc(Cl)cc2)c(C)c1C(=O)OCC1CSc2ccccc2O1 (centres unmarked) [‘5463],"% 1H-CP-55,940 displacement (mean) from single point screen",CB1 (rCB1) [1],81.83%
same,Barr2+GRK2 hCB1 response,hCB1; Log [Compound] (M) -4.22186,-7.036
same,Barr2+GRK2 hCB1 response,hCB1; Log [Compound] (M) -4.63927,-40.2196
same,Barr2+GRK2 hCB1 response,hCB1; Log [Compound] (M) -5.05788,-35.4335
same,Barr2+GRK2 hCB1 response,hCB1; Log [Compound] (M) -5.47381,-41.4959
same,Barr2+GRK2 hCB1 response,hCB1; Log [Compound] (M) -5.89285,-45.6439
same,Barr2+GRK2 hCB1 response,hCB1; Log [Compound] (M) -6.31878,-47.8774
same,Barr2+GRK2 hCB1 response,hCB1; Log [Compound] (M) -6.72585,-53.9398
same,Barr2+GRK2 hCB1 response,hCB1; Log [Compound] (M) -7.14267,-43.7294
same,Barr2+GRK2 hCB1 response,hCB1; Log [Compound] (M) -7.55284,-45.9629
same,Barr2+GRK2 hCB1 response,hCB1; Log [Compound] (M) -8,-54.2588
same,Barr2+GRK2 hCB1 response,hCB1; Log [Compound] (M) -8.22186,-7.036
same,Barr2+GRK2 hCB1 response,hCB1; Log [Compound] (M) -8.39794,-23.3088
same,Barr2+GRK2 hCB1 response,hCB1; Log [Compound] (M) -8.68787,-41.1769
same,Barr2+GRK2 hCB1 response,hCB1; Log [Compound] (M) -9.15521,-53.6207
same,Barr2+GRK2 hCB1 response,hCB1; Log [Compound] (M) -9.61989,-38.9433
same,Barr2+GRK2 hCB1 response,hCB1; Log [Compound] (M) -10.0969,-52.3444
same,Barr2+GRK2 hCB1 response,hCB1; Log [Compound] (M) -10.5529,-37.0289
same,Barr2+GRK2 hCB1 response,hCB1; Log [Compound] (M) -11.0177,-49.4727
same,Barr2+GRK2 hCB1 response,hCB1; Log [Compound] (M) -11.4949,-43.0913
same,Barr2+GRK2 hCB1 response,hCB1; Log [Compound] (M) -11.9208,-24.266
same,Barr2+GRK2 hCB1 response,hCB1; Log [Compound] (M) -12.3979,-7.993
same,Barr2+GRK2 hCB1 response,hCB1; Log [Compound] (M) -12.8861,-18.5227
same,Barr2+GRK2 hCB1 response,hCB1; Log [Compound] (M) -13.3979,10.832
same,Gi1 hCB1,hCB1; Log [Compound] (M) -4.22186,28.0981
same,GoB hCB1,hCB1; Log [Compound] (M) -4.22186,24.5257
same,Gi1 hCB1,hCB1; Log [Compound] (M) -4.63927,21.0665
same,GoB hCB1,hCB1; Log [Compound] (M) -4.63927,14.8206
same,Gi1 hCB1,hCB1; Log [Compound] (M) -5.05788,16.6796
same,GoB hCB1,hCB1; Log [Compound] (M) -5.05788,10.4802
same,Gi1 hCB1,hCB1; Log [Compound] (M) -5.47381,14.3358
same,GoB hCB1,hCB1; Log [Compound] (M) -5.47381,11.0879
same,Gi1 hCB1,hCB1; Log [Compound] (M) -5.89285,7.716
same,GoB hCB1,hCB1; Log [Compound] (M) -5.89285,6.331
same,Gi1 hCB1,hCB1; Log [Compound] (M) -6.31878,3.392
same,GoB hCB1,hCB1; Log [Compound] (M) -6.31878,2.3203
same,Gi1 hCB1,hCB1; Log [Compound] (M) -6.72585,-0.6618
same,GoB hCB1,hCB1; Log [Compound] (M) -6.72585,-6.013
same,Gi1 hCB1,hCB1; Log [Compound] (M) -7.14267,-2.705
same,GoB hCB1,hCB1; Log [Compound] (M) -7.14267,-6.777
same,Gi1 hCB1,hCB1; Log [Compound] (M) -7.55284,-2.958
same,GoB hCB1,hCB1; Log [Compound] (M) -7.55284,-3.8083
same,Gi1 hCB1,hCB1; Log [Compound] (M) -8,-2.752
same,GoB hCB1,hCB1; Log [Compound] (M) -8,-8.791
same,Gi1 hCB1,hCB1; Log [Compound] (M) -8.22186,6.512
same,GoB hCB1,hCB1; Log [Compound] (M) -8.22186,0.4626
same,Gi1 hCB1,hCB1; Log [Compound] (M) -8.39794,-3.021
same,GoB hCB1,hCB1; Log [Compound] (M) -8.39794,-7.2806
same,Gi1 hCB1,hCB1; Log [Compound] (M) -8.68787,0.4468
same,GoB hCB1,hCB1; Log [Compound] (M) -8.68787,-0.5617
same,Gi1 hCB1,hCB1; Log [Compound] (M) -9.15521,-1.422
same,GoB hCB1,hCB1; Log [Compound] (M) -9.15521,-2.124
same,Gi1 hCB1,hCB1; Log [Compound] (M) -9.61989,-0.7093
same,GoB hCB1,hCB1; Log [Compound] (M) -9.61989,-5.475
same,Gi1 hCB1,hCB1; Log [Compound] (M) -10.0969,-1.0102
same,GoB hCB1,hCB1; Log [Compound] (M) -10.0969,-3.201
same,Gi1 hCB1,hCB1; Log [Compound] (M) -10.5529,-0.3926
same,GoB hCB1,hCB1; Log [Compound] (M) -10.5529,-3.652
same,Gi1 hCB1,hCB1; Log [Compound] (M) -11.0177,-0.8518
same,GoB hCB1,hCB1; Log [Compound] (M) -11.0177,-4.381
same,Gi1 hCB1,hCB1; Log [Compound] (M) -11.4949,-1.279
same,GoB hCB1,hCB1; Log [Compound] (M) -11.4949,-3.965
same,Gi1 hCB1,hCB1; Log [Compound] (M) -11.9208,-2.99
same,GoB hCB1,hCB1; Log [Compound] (M) -11.9208,-2.853
same,Gi1 hCB1,hCB1; Log [Compound] (M) -12.3979,-0.25
same,GoB hCB1,hCB1; Log [Compound] (M) -12.3979,-4.034
same,Gi1 hCB1,hCB1; Log [Compound] (M) -12.8861,-2.879
same,GoB hCB1,hCB1; Log [Compound] (M) -12.8861,-4.451
same,Gi1 hCB1,hCB1; Log [Compound] (M) -13,-0.7885
same,GoB hCB1,hCB1; Log [Compound] (M) -13,-4.468
same,Gi1 hCB1,hCB1; Log [Compound] (M) cell empty,0.7319
same,GoB hCB1,hCB1; Log [Compound] (M) cell empty,-2.437
same,pEC50 [95% CI],hCB1; hCB1 Gi1,5.3 [3.4 – 5.8]
same,pEC50 [95% CI],hCB1; hCB1 GoB,5.1 [6.0]
same,EC50,hCB1; hCB1 Gi1,4.94 µM
same,EC50,hCB1; hCB1 GoB,7.47 µM
same,Emax,"hCB1; read-out: Emax [95% CI], hCB1 Gi1",31%
same,Emax,"hCB1; read-out: Emax [95% CI], hCB1 GoB",32%
same,pKi [95% CI],CB1 (rCB1) [2]; rCB1,6.1 [5.8 – 6.4]
same,Ki,"CB1 (rCB1) [2]; read-out: Ki [95% CI], rCB1, [3H]-CP-55,940",0.825 µM

# Source: publication PMC11882969 (Nature Communications, 2025)
